# Source: patent publication US20250230147A1, “LACTAMS AS CBL-B INHIBITORS” (Genentech, Inc., priority 2021, published 2025)
# Columns and labels:
# Cbl-b = Cbl-b (Homo sapiens (Human), UniProt Q13191); test: Cbl-b LCK Ub TR-FRET assay (Cbl-b Lck HTRF); assay type: biochemical
# In short: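 TR-FRET (340 nm excitation, 615/665 nm emission) read after adding HA-ubiquitin–UBE2D2 thioester, anti-HA-D2 and streptavidin-Eu. Beforehand, compounds incubated 60 min with biotinylated Cbl-b, then 90 min with His-LCK and ATP (1 mM in 2× mix); IC50 from 10 concentrations, DMSO high and no-LCK low controls.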
# c-Cbl = c-Cbl (Homo sapiens (Human), UniProt P22681); test: C-Cbl LCK Ub TR-FRET assay (c-cbl Lck HTRF); assay type: biochemical; settings: for (fold-selectivity): C-cbl Lck HTRF IC50 relative to Cbl-b Lck HTRF IC50
# c-Cbl, sequence (P22681 47-435): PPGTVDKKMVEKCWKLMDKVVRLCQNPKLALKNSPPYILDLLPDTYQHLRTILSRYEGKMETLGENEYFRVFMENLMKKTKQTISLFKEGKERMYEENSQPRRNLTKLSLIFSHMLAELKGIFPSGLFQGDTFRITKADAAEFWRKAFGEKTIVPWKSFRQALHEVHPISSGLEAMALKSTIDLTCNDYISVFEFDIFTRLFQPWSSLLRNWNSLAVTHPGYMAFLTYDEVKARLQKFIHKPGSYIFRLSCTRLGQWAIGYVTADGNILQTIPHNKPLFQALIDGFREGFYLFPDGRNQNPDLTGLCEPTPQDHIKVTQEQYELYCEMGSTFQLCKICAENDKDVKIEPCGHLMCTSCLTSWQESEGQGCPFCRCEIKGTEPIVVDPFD
# In short: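 Detection reagents added, brief spin, 20 min RT. IC50 fit normalized to no-LCK (low) and DMSO (high) controls.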
# [1] = Liver microsomes metabolic stability, rat; assay type: in vitro ADME; settings: 1 μM compound, 0.5 mg/mL microsomal protein
# Description: (§1) Metabolic stability of test compounds was evaluated in pooled rat, mouse, dog, and cynomolgus monkey liver microsomes (BD Biosciences, San Jose, CA). The incubation conditions were as follows: 1 μM of the tested compound, 1 mM NADPH, 0.5 mg/mL microsomal protein in 0.1 M potassium phosphate buffer (pH 7.4). Following a 5-minute pre-incubation period, the enzymatic reactions were initiated by the addition of NADPH and test compound to the microsomes diluted in phosphate buffered saline. The mixtures were incubated at 37° C. for 0, 20, 40, and 60 min.
# (§2) Compound concentrations were assessed by LC-MS/MS. Intrinsic clearance based upon microsomal stability data was determined using a substrate depletion method and scaled to hepatic clearance using the well-stirred model (Obach, R. S.; Baxter, J. G.; Liston, T. E.; Silber, B. M.; Jones, B. C.; Macintyre, F.; Rance, D. J.; Wastall, P., “The Prediction of Human Pharmacokinetic Parameters from Preclinical and in vitro Metabolism Data”, J. Pharmacol. Exp. Ther., (1997), 283 (1), 46-58).
# [2] = Liver microsomes metabolic stability, mouse; assay type: in vitro ADME; settings: 1 μM compound, 0.5 mg/mL microsomal protein
# Description: as §1, §2
# [3] = Liver microsomes metabolic stability, dog; assay type: in vitro ADME; settings: 1 μM compound, 0.5 mg/mL microsomal protein
# Description: as §1, §2
# rat hepatocytes = test: Hepatocyte metabolic stability, rat; assay type: in vitro ADME; settings: 1.0 μM compound, 0.5 million cells/mL
# Description: (§3) Metabolic stability assays of test compounds were evaluated in cryopreserved pooled rat, mouse, dog, and cynomolgus monkey hepatocytes (CellzDirect; Durham, NC, USA). Membrane integrity of the cells was assessed by trypan blue exclusion. Test compounds (1.0 μM with 0.1% dimethylsulfoxide) were incubated with cells (0.5 million cells/mL) at 37° C. in a 95% air/5% CO2 atmosphere for 0, 20, 40, or 60 minutes. Concentrations of test compounds in hepatocyte incubations were determined by LC/MS/MS. Intrinsic clearance was determined using a substrate depletion method and scaled to hepatic clearance using the well-stirred model as described above for the liver microsomes metabolic stability assays.
# mouse hepatocytes = test: Hepatocyte metabolic stability, mouse; assay type: in vitro ADME; settings: 1.0 μM compound, 0.5 million cells/mL
# Description: as §3
# [4] = In vivo pharmacokinetics, mouse; parameters: species or system CD-1 mice; settings: male, CD-1, plasma; for bioavailability: PO 1-5 mg/kg, read-out: Oral Bioavailability (F %); for clearance: single intravenous bolus 0.2-1 mg/kg, read-out: Mouse CL
# Description: The pharmacokinetics of test compounds were evaluated following a single intravenous bolus (IV) of solution at a dose of 0.2-1 mg/kg and oral administration (PO) of solution/suspension at doses of 1-5 mg/kg in male cynomolgus monkey, beagle dogs, Sprague Dawley rats, or CD-1 mice using a parallel study design. Blood samples for the IV dose group were collected prior to administration (predose) and at 0.033, 0.083, 0.25, 0.5, 1, 3, 6, 9 and 24 hours post dose. Blood samples for PO dose groups were collected prior to administration (predose) and at 0.083, 0.25, 0.5, 1, 3, 6, 9 and 24 hours post dose. For the IV group, urine was collected from each animal at predose and from 0-6 and 6-24 hours post dose. The vehicle used for IV dose groups was a combination of PEG400 with citrate buffer (pH 5.0) or PEG400/Cremphor with DMSO/H2O, and for PO groups was MCT.
# Plasma and urine concentrations were quantitated at Genentech Inc. using a non-validated LC/MS/MS method. The lower limit of quantitation (LLOQ) of the plasma and urine assays was 0.005 μM. PK parameters were determined by non-compartmental methods using WinNonlin (version 5.2, Pharsight Corporation, Mountain View, CA).
# Cbl-b, sequence (Q13191 40-426): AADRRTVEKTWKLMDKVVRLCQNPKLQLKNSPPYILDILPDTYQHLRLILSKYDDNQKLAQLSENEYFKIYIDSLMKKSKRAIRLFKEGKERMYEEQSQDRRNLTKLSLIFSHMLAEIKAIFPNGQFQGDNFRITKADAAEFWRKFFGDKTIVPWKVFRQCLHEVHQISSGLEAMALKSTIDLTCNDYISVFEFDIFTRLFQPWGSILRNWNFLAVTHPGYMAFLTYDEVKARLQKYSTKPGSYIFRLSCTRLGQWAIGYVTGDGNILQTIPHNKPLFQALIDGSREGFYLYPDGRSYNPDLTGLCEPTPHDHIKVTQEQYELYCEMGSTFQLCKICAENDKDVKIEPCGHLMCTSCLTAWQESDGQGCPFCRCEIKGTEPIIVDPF
IC50 (Cbl-b),IC50 (c-Cbl),(fold-selectivity) (c-Cbl),Liver microsomes Pred. CLhep (mL/min/kg) Rat/Mouse/Dog [1],Liver microsomes Pred. CLhep (mL/min/kg) Rat/Mouse/Dog [2],Liver microsomes Pred. CLhep (mL/min/kg) Rat/Mouse/Dog [3],Hepatocyte Pred. CLhep (mL/min/kg) Rat/Mouse/Dog (rat hepatocytes),Hepatocyte Pred. CLhep (mL/min/kg) Rat/Mouse/Dog (mouse hepatocytes),bioavailability [4],clearance [4],SMILES
79 nM,110 nM,1.3x,6 mL/min/kg,14 mL/min/kg,12 mL/min/kg,19 mL/min/kg,37 mL/min/kg,–,–,"Cn1cnnc1[C@H](F)C1(c2cccc(N3Cc4c(cc(CN)cc4C(F)(F)F)C3=O)c2)COC1 [Compound 68, (R)-6-(aminomethyl)-2-(3-(3-(fluoro(4-methyl-4H-1,2,4-triazol-3-yl)methyl)oxetan-3-yl)phenyl)-4-(trifluoromethyl)isoindolin-1-one]"
110 nM,210 nM,1.9x,–,–,–,–,–,2%,44 mL/min/kg,"Cn1cnnc1[C@H](F)C1(c2cccc(N3Cc4c(cc(CN5CCC5)cc4C(F)(F)F)C3=O)c2)COC1 [Compound 70, (R)-6-(azetidin-1-ylmethyl)-2-(3-(3-(fluoro(4-methyl-4H-1,2,4-triazol-3-yl)methyl)oxetan-3-yl)phenyl)-4-(trifluoromethyl)isoindolin-1-one]"
57 nM,120 nM,2.2x,15 mL/min/kg,37 mL/min/kg,19 mL/min/kg,11 mL/min/kg,35 mL/min/kg,–,–,"Cn1cnnc1[C@H](F)C1(c2cccc(N3Cc4c(cc(CN5CC(C)(CO)C5)cc4C(F)(F)F)C3=O)c2)COC1 [Compound 74, (R)-2-(3-(3-(fluoro(4-methyl-4H-1,2,4-triazol-3-yl)methyl)oxetan-3-yl)phenyl)-6((3-(hydroxymethyl)-3-methylazetidin-1-yl)methyl)-4-(trifluoromethyl)isoindolin-1-one]"
130 nM,270 nM,2.1x,7 mL/min/kg,27 mL/min/kg,14 mL/min/kg,12 mL/min/kg,36 mL/min/kg,2%,40 mL/min/kg,"Cn1cnnc1[C@H](F)C1(c2cccc(N3Cc4c(cc(CN5CC6CC5C6)cc4C(F)(F)F)C3=O)c2)COC1 [Compound 86, (R)-6-((2-azabicyclo[2.1.1]hexan-2-yl)methyl)-2-(3-(3-(fluoro(4-methyl-4H-1,2,4-triazol-3-yl)methyl)oxetan-3-yl)phenyl)-4-(trifluoromethyl)isoindolin-1-one]"
11 nM,13 nM,1.1x,–,–,–,–,–,13%,42 mL/min/kg,"CC(C)[C@H]1CN(C)CCN1Cc1cc2c(c(C(F)(F)F)c1)CN(c1cccc(C3([C@@H](F)c4nncn4C)COC3)c1)C2=O [Compound 187, 2-(3-(3-((R)-fluoro(4-methyl-4H-1,2,4-triazol-3-yl)methyl)oxetan-3-yl)phenyl)-6-(((S)-2-isopropyl-4-methylpiperazin-1-yl)methyl)-4-(trifluoromethyl)isoindolin-1-one]"
12 nM,11 nM,0.95x,–,–,–,–,–,21%,34 mL/min/kg,"CC(C)[C@H]1CN(C)CCN1Cc1cc2c(c(C(F)(F)F)c1)CN(c1cccc(C3([C@@H](F)c4nncn4C)CC(F)(F)C3)c1)C2=O [Compound 189, 2-(3-(3,3-difluoro-1-((R)-fluoro(4-methyl-4H-1,2,4-triazol-3-yl)methyl)cyclobutyl)phenyl)-6-(((S)-2-isopropyl-4-methylpiperazin-1-yl)methyl)-4-(trifluoromethyl)isoindolin-1-one]"
